In ChEMBL document CHEMBL1201862, “PubChem BioAssay data set” (2004):
Active and inactive are the calls of the source. Cut-off read from the data, not from the text of the source, for most assays here: actives have a measured EC50 and inactives only a lower limit.

Assays:
[1] = microbe, parasite or virus in culture; format: functional; conditions: Mycobacterium tuberculosis
[2] = molecular target: T1, Heat shock factor protein 1 (Mus musculus, UniProt P38532); experiment: decrease of HSF1-responsive luciferase luminescence – cell-based, NIH3T3, dose retest, confirmation (AID 2382); format: functional;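 note: NIH3T3 fibroblasts with HSF1-driven luciferase reporter stressed by proteasome inhibitor MG132; luminescence from HSF1-driven luciferase expression after 8 hours of MG132 stress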
T1 sequence (P38532 whole entry): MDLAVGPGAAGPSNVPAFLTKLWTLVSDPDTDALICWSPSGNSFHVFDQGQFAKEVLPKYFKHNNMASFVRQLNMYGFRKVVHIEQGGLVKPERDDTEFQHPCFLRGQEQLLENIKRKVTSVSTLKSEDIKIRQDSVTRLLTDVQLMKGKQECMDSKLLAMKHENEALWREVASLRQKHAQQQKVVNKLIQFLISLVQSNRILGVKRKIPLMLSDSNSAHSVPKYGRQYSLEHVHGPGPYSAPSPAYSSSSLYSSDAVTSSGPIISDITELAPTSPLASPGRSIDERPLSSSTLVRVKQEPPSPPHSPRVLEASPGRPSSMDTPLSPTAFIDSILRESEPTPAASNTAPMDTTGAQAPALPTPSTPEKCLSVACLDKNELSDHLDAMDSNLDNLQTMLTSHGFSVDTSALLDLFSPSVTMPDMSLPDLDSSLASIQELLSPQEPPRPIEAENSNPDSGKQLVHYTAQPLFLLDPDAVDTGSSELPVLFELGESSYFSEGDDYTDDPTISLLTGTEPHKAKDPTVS

[3] = molecular target: T2, Short transient receptor potential channel 4 (Mus musculus, UniProt Q9QUQ5); experiment: block of DAMGO-driven TRPC4 calcium entry – cell-based, HEK293 TRPC4/mu-opioid, Fluo-4 calcium, dose response (AID 434942); format: functional;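 note: potency of inhibitors blocking the TRPC4 calcium response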
T2 sequence (Q9QUQ5 whole entry): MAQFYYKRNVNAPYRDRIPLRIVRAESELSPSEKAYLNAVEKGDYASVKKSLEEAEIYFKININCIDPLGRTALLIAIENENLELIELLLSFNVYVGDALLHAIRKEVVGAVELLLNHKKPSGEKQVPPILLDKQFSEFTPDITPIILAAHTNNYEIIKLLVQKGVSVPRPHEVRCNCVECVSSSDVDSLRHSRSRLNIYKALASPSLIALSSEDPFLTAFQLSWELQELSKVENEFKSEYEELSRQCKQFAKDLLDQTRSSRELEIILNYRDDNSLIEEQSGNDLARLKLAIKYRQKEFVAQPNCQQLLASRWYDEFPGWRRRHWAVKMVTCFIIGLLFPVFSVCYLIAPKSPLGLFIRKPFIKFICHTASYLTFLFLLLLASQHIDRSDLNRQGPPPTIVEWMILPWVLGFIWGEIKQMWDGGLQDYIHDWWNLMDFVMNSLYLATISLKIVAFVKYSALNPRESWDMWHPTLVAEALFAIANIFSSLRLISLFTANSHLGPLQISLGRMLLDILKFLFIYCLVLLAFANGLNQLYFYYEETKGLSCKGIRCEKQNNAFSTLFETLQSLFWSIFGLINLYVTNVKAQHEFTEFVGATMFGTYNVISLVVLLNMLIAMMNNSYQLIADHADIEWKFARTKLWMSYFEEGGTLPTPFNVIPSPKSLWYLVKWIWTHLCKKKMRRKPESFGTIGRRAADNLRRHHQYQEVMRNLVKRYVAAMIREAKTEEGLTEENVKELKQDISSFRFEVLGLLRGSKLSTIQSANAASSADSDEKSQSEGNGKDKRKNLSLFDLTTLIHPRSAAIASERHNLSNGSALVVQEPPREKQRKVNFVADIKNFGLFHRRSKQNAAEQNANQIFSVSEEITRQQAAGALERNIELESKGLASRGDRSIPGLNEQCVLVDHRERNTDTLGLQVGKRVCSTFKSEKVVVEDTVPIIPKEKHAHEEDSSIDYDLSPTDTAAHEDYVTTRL

cells [4] = format: functional, cell-based
cells [5] = format: functional, cell-based; remark: listed apart in the source
cells [6] = format: functional
Streptococcus = experiment: GAS UMAA2166 growth inhibition – luminescence, BacTiterGlo, counter-screen for streptokinase expression inhibitor project, dose response (AID 1915); format: functional, organism-based;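 note: potency for reduction of bacterial viability or growth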
[7] = tested on: Streptococcus sp. 'group A'; experiment: Streptococcus pyogenes SK(-)GAS viability under kanamycin – luminescence, BacTiterGlo, confirmation, counter-screen for streptokinase expression inhibitor project, dose response (AID 1900); format: functional, organism-based
[8] = luciferase reporter signal suppression in cells – H4 neuroglioma cells, luminescence, dose response (AID 1990); format: functional, cell-based
[9] = Trypanosoma cruzi growth suppression in host cells – NIH3T3 host cells, beta-gal luminescence, confirmation (AID 2044); format: functional, cell-based;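 note: intracellular parasites grown in NIH/3T3 mouse fibroblasts as host cells; luminescent beta-galactosidase reporter signal from transgenic T. cruzi replicating inside host cells; inhibitors lower the luminescence signal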
[10] = Luminescence Cell-Based Dose Response HTS to Identify Inhibitors of 5'UTR Stem-Loop Driven Prion Protein mRNA Translation in H4 Neuroglioblastoma Cells. [Related pubchem assays: 1827 (Project Summary), 1813 (Primary HTS)]; format: functional
[11] = NIH-3T3 fibroblast cytotoxicity, dose response, cytotoxicity control, cell-based, fluorescence, Alamar Blue, secondary assay (AID 2327); format: functional;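 note: NIH-3T3 mouse fibroblasts cultured with fluconazole at 8 µg/mL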
[12] = Luminescence Cell-Based Dose Retest to Confirm Inhibitors of Cancer Stem Cells. [Related pubchem assays (depositor defined):AID2717, AID2721]; format: functional; conditions: Homo sapiens
[13] = alpha-synuclein stem-loop luciferase translation blockers – H4 neuroglioma cells, luminescence, confirmation (AID 1988); format: functional, cell-based
[14] = NIH3T3 cell viability loss – ATP luminescence, mouse fibroblasts, counter-screen, dose response (AID 2010); format: functional, cell-based;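 note: cells exposed to compound for about 90 hours before reading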
[15] = fluconazole-exposed Candida albicans growth modulators – fluorescence, retest, confirmation (AID 2467); format: functional, cell-based
[16] = molecular target: T3, Corticotropin-releasing factor receptor 2/Corticotropin-releasing factor-binding protein (Homo sapiens, UniProt P24387+Q13324); experiment: activators of CRF receptor 2 with binding protein – uHTS hits, confirmation (AID 602473); format: functional; conditions: read-out: EC50_Mean
T3 sequence (Q13324 whole entry): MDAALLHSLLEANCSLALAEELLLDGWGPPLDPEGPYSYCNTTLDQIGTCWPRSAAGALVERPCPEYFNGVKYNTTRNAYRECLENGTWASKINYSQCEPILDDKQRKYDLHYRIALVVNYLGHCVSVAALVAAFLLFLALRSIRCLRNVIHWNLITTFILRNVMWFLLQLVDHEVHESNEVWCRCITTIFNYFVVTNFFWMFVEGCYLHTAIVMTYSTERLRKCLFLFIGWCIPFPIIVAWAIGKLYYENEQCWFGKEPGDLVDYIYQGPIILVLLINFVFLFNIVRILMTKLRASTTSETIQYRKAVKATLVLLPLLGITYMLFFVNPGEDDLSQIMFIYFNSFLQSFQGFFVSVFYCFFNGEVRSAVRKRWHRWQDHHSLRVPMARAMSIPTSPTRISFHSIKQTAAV
T3 sequence (P24387 whole entry): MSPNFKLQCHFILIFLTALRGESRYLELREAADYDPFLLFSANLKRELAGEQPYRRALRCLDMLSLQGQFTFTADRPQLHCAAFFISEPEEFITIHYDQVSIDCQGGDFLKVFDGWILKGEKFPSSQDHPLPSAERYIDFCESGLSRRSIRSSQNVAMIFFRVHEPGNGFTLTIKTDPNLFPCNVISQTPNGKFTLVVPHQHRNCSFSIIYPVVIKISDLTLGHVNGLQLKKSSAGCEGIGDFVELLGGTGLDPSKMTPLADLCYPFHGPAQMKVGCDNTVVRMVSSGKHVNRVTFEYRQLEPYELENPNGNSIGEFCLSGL

[17] = molecular target: T3, Corticotropin-releasing factor receptor 2/Corticotropin-releasing factor-binding protein; experiment: Dose Response confirmation of uHTS hits for small molecule antagonists of the CRF-binding protein and CRF-R2 receptor complex.; format: functional; conditions: read-out: IC50_Mean
Streptokinase A = molecular target: T4, Streptokinase A (Streptococcus pyogenes serotype M1, UniProt P10520); experiment: viability-normalized secreted streptokinase activity reduction – plasminogen activation absorbance, OD405, dose response (AID 1914); format: functional, Streptococcus pyogenes M1 GAS;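 note: secreted streptokinase activity via plasminogen activation per viability signal from cell pellet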
T4 sequence (P10520 whole entry): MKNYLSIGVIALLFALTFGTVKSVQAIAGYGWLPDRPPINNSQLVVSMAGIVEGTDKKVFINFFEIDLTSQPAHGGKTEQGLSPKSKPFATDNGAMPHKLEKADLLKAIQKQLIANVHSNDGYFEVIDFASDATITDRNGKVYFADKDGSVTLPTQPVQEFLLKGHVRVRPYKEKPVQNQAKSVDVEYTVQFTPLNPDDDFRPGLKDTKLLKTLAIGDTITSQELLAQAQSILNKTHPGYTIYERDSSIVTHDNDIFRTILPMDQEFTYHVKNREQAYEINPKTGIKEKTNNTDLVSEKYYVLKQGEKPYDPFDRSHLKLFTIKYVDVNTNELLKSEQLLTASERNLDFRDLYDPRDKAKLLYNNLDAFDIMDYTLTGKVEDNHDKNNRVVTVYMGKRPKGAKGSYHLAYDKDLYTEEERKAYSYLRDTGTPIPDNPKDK

[18] = viability of PTEN-deleted HCT116 cells – cell-based, HCT116 PTEN knockout, dose response (AID 1047); format: functional;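 note: HCT116 colon tumor cells with PTEN knocked out; cells exposed to compound for 60 hours before readout; potency for loss of cell viability measured by luminescence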
[19] = viability of HCT116 lacking mutant beta-catenin – cell-based, human colon tumor, dose response (AID 1045); format: functional;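 note: HCT116 colon tumor cells with beta catenin knocked out; cells exposed to compound for 60 hours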
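Throughout, for AC50: cells exposed to compound for roughly 70 hours or longer before luminescence read.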

Compound: CCOC(=O)C1(CCOc2ccccc2)CCN(Cc2cccc(-n3cccn3)c2)CC1
- CC50 [1]: > 40 µM (active)
- EC50 [2]: > 195 µM (not active)

Compound: Cc1cc(OCc2cc(C(=O)NCC3(C)COC3)no2)cc(C)c1Cl
- EC50 [3]: 2.37 µM (active)

Compound: Cc1ncsc1CCOC(=O)C12CC3CC(CC(C3)C1)C2
- EC50 [3]: 5.31 µM (active)

Compound: Cc1ccc2c(c1)N(C(=O)CCC(=O)Nc1ccccc1Br)CC(C)O2 (stereo not given)
- EC50 [3]: 1.68 µM (active)

Compound: CCOc1cc(CNCc2cccs2)ccc1OCC(=O)NC(C)(C)C
- EC50 [3]: 2.11 µM (active)

Compound: Cn1nnnc1SCCNCc1ccccc1OCc1ccc(Cl)cc1
- EC50 [3]: 1.33 µM (active)

Compound: CC(C)Cc1nnc(NC(=O)CCC(=O)N2CCC3(CC2)OCCO3)s1
- EC50 (cells [4]): > 350 µM (not active)
- EC50 (cells [5]): > 350 µM (not active)

Compound: O=C(OCCCCN1C(=O)c2ccccc2C1=O)c1ccc(Br)o1
- IC50 (cells [6]): 46.8 µM (active)

Compound: COc1ccc(-n2c(C)csc2=S)cc1
- EC50 (cells [4]): > 350 µM (not active)
- EC50 (cells [5]): > 350 µM (not active)

Compound: CCc1ccc(NC(=O)C(=O)NNC(=O)COc2cccc(OC)c2)cc1
- IC50 (cells [6]): 5.58 µM (active)

Compound: O=C(OCCCOC(=O)c1ccc([N+](=O)[O-])o1)c1ccc([N+](=O)[O-])o1
- IC50 (cells [6]): < 0.1 µM (active)

Compound: O=[N+]([O-])c1cccc(/C=C/c2ccc3cccc(O)c3n2)c1
- EC50 (Streptococcus): 7.37 µM (active)
- EC50 [7]: 3.36 µM (active)
- EC50 (cells [4]): > 350 µM (not active)
- EC50 (cells [5]): 7.51 µM (active)

Compound: O=C(NC1CCCC1)c1cc(-c2cccs2)on1
- EC50 (cells [4]): 108 µM (active)
- EC50 (cells [5]): 52.2 µM (active)

Compound: C=CCOc1ccc(Br)cc1CNC(C)(C)CO
- EC50 [3]: 3.76 µM (active)

Compound: Cc1cc(Br)c(NC(=O)CN(C)CCOc2ccccc2)c(Br)c1
- EC50 [3]: 5.96 µM (active)

Compound: Cc1cc(SCC(=O)N/N=C/c2ccc(O)cc2O)c(C)cc1Br
- EC50 (Streptococcus): 2.57 µM (active)
- EC50 [8]: 5.85 µM (active)
- EC50 [9]: 0.687 µM (active)
- EC50 [10]: 9.19 µM (active)
- EC50 [11]: > 160 µM (inactive)
- AC50 [12]: 4.49 µM (active)
- EC50 [7]: 2.46 µM (active)
- EC50 (cells [4]): 13.4 µM (active)
- EC50 [13]: 5.74 µM (active)
- EC50 (cells [5]): > 350 µM (not active)
- EC50 [14]: > 60 µM (inconclusive)
- EC50 [15]: 3.06 µM (active)

Compound: COc1ccc(O)c(C(=O)c2cnc3c(c2)c(=O)[nH]c(=O)n3C)c1
- EC50 [3]: 1.5 µM (active)

Compound: C#CCSc1nnc(-c2ccc([N+](=O)[O-])cc2)o1
- IC50 (cells [6]): 9.4 µM (active)

Compound: CCN(CC)CCOC(=O)C(Cc1ccco1)Cc1cccc2ccccc12 (stereo not given)
- EC50 [8]: > 120 µM (not active)
- EC50 [10]: > 120 µM (not active)
- EC50 [16]: > 53 µM (inactive)
- EC50 (cells [4]): > 350 µM (not active)
- EC50 [13]: > 120 µM (not active)
- EC50 (cells [5]): > 350 µM (not active)
- IC50 [17]: > 47.1 µM (inactive)

Compound: O=C(Nc1nc2ccccc2n1CCN1CCCC1)c1ccc(Cl)cc1
- IC50 (cells [6]): 25.4 µM (active)

Compound: Cc1[nH]n(S(=O)(=O)Cc2ccccc2)c(=O)c1N=Nc1ccccc1Cl
- IC50 (cells [6]): 8.42 µM (active)

Compound: CN1/C(=C\C(=O)COC(=O)C2COc3ccccc3O2)C(C)(C)c2ccccc21 (stereo not given)
- IC50 (cells [6]): 48.2 µM (active)

Compound: COc1cccc(C2C3=C(N=c4s/c(=C\c5cccc(O)c5)c(=O)n42)c2ccccc2CC3)c1OC (stereo not given)
- EC50 (Streptokinase A): 6.31 µM (active)
- EC50 (Streptococcus): > 150 µM (not active)
- CC50 [1]: 32.5 µM (active)
- AC50 [12]: 4.06 µM (active)
- EC50 [7]: 20.8 µM (active)
- EC50 [18]: 13.9 µM (active)
- EC50 [19]: 15.3 µM (active)

Compound: Cc1cccc(NC(=O)C2CC(=O)N=C(Nc3nc4ccccc4s3)N2)c1 (stereo not given)
- EC50 (cells [4]): > 350 µM (not active)
- EC50 (cells [5]): > 350 µM (not active)
